Experimental data from paper PMC8945721, “Sulphoraphane Affinity-Based Chromatography for the Purification of Myrosinase from Lepidium sativum Seeds” (Biomolecules, 2022).

Tested on: T1, myrosinase from Lepidium sativum seeds
T1 construct: gene beta-thioglucoside glucohydrolase
Test: glucose release, glucose oxidase-peroxidase coupled assay, Michaelis-Menten fit
Assay type: biochemical
Conditions: pH 6.0, 37 °C, 100 μM L-ascorbic acid; read-out: KM (×10^-3 mol/L)
Description: glucose release, glucose oxidase-peroxidase coupled assay, Michaelis-Menten fit on myrosinase from Lepidium sativum seeds

Km	Structure (SMILES)
1130 ± 256 µM	C[S+]([O-])CCCC/C(=N/OS(=O)(=O)O)S[C@@H]1O[C@H](CO)[C@@H](O)[C@H](O)[C@H]1O (stereo partly drawn) [Glucoraphanin]
632 ± 235 µM	O=S(=O)(O)O/N=C(/Cc1ccc(O)cc1)S[C@@H]1O[C@H](CO)[C@@H](O)[C@H](O)[C@H]1O [Sinalbin]
574 ± 237 µM	C=CC/C(=N/OS(=O)(=O)O)S[C@@H]1O[C@H](CO)[C@@H](O)[C@H](O)[C@H]1O [Sinigrin]
